# According to US12668785B2, “Combination treatment by administering a recombinant apyrase protein in conjunction with a P2Y12 inhibitor” (ASTRAZENECA AB, priority 2020, dated 2026):
# Read-outs that look alike come from different tables or passages of the source.
# B1: AZD3366: recombinant optimised form of soluble CD39L3 apyrase (R67G, T69R, N-terminal EVLP), amino acid sequence SEQ ID NO: 2 (protein)
# chain: EVLPPGLKYGIVLDAGSSGTRVYVYQWPAEKENNTGVVSQTFKCSVKGSGISSYGNNPQDVPRAFEECMQKVKGQVPSHLHGSTPIHLGATAGMRLLRLQNETAANEVLESIQSYFKSQPFDFRGAQIISGQEEGVYGWITANYLMGNFLEKNLWHMWVHPHGVETTGALDLGGASTQISFVAGEKMDLNTSDIMQVSLYGYVYTLYTHSFQCYGRNEAEKKFLAMLLQNSPTKNHLTNPCYPRDYSISFTMGHVFDSLCTVDQRPESYNPNDVITFEGTGDPSLCKEKVASIFDFKACHDQETCSFDGVYQPKIKGPFVAFAGFYYTASALNLSGSFSLDTFNSSTWNFCSQNWSQLPLLLPKFDEVYARSYCFSANYIYHLFVNGYKFTEETWPQIHFEKEVGNSSIAWSLGYMLSLTNQIPAESPLIRLPIEPPV
# modifications: N-terminal EVLP
# What was measured:
# [1] = cited from earlier work; for time to peak plasma concentration: after oral administration; for mean elimination half-life: described in the drug label
# platelet aggregation [2] = settings: cited from earlier work; for time for platelet activity to return to baseline following discontinuance: after discontinuance
# platelet aggregation [3] = assay: ADP-induced whole blood platelet aggregation (Multiplate impedance aggregometer) after in vivo dosing; set-up: species or system mouse; settings: for PA (AU*min): blood at t = 80 min, ADP 6.5 μmol/L
# Protocol: Immediately after the blood sampling, 175 μL whole blood was added to the Multiplate® (Roche Diagnostics GmbH, Mannheim, Germany) mini test cells and mixed with 175 μL 37° C. pre-heated saline (9 mg/mL, Fresenius Kabi AG, Bad Homburg, Germany).
# [4] = tested on: pig animal model of myocardial infarction; assay: Cardiac damage assessed by CMR in pig model of myocardial infarction; format: in vivo; settings: ticagrelor 180 mg p.o. 2 h prior MI, then 90 mg/bid
# Protocol: (§1) Regular chow-fed Landrace pigs (n=20; weight≈40 kg) were randomly (Excel randomized function) distributed into four groups to receive: • I) Oral placebo-control (2 h prior Myocardial Infarction (MI) induction n=5) • II) A loading dose of ticagrelor (180 mg; n=5; p.o 2 h prior MI induction) • III) A loading dose of ticagrelor (180 mg; n=5; p.o 2 h prior MI induction and 1 mg/kg AZD3366 i.v. 10 min before reperfusion) • IV) A loading dose of ticagrelor (180 mg; n=5; p.o 2 h prior MI induction and 3 mg/kg AZD3366 i.v. 10 min before reperfusion)
# (§2) Thereafter, pigs underwent temporary (90 minutes) balloon occlusion of the mid-left anterior descending coronary artery (experimental MI) and then reperfused, essentially as described in Vilahur et al. 2016. Throughout the following 42 days, the pigs received daily oral maintenance dosing of placebo (group I) or ticagrelor (90 mg/bid, groups II to IV) and serial Cardiac Magnetic Resonance (CMR) assessments were performed at day 3 (early remodeling phase) and day 42 (late remodeling phase) post-MI.
# (§3) On the day of MI-induction animals received buprenorphine (0.03 mg/kg) and cefazoline (25 mg/kg) as prophylaxis for pain and wound infection, respectively, and then anaesthetized by administrating an intramuscular injection of ketamine (30 mg/kg), xylazine (2.2 mg/kg), and atropine (0.05 mg/kg). Once tranquilized, animals were endotracheally intubated and anesthesia was maintained by isoflurane inhalation (2%). Prior to starting the MI-induction procedure, an infusion of amiodarone (300 mg) and lidocaine (150 mg) in 1.000 mL of saline (250 mL/h) was initiated as prophylaxis for malignant ventricular arrhythmias through a line placed in the marginal ear vein and a bolus of heparin (100 U/kg) was administered to prevent clot formation in the catheters. […] Complete coronary ischemia (verified by angiography) was maintained for 90 minutes. At the end of the ischemic period, the balloon was completely deflated and animals were allowed to recover. Electrocardiogramand hemodynamic parameters were continuously recorded throughout the entire procedure and the echocardiographic system (Phillips iE33) equipped with a S5-1 sector array transducer was used prior- and post-MI induction to document the initial worsening of left ventricular ejection fraction (LVEF, M-mode analysis using the parasternal long-axis view; Vilahur et al. 2016).
# (§4) CMR studies were conducted serially in all animals at Day 3 (early remodeling phase) and Day 42 (late remodeling phase) post-MI. The studies were performed on a 3.0T-CMR system (AchievaVR, Philips, Amsterdam, The Netherlands) and CMR image acquisition was carried out by a CMR specialized technician blinded in terms of treatment. For CMR studies, animals were anaesthetized with an intramuscular injection of a cocktail composed of ketamine, xylazine, and atropine and maintained by a continuous intravenous infusion of propofol to ensure mechanical ventilation. Once the animals were positioned in a head-first supine position with a flexible phased-array surface coil placed over the chest, ECG gating was used to acquire still images of the heart. The following dedicated CMR sequences were acquired in all cases: ‘cine’ Balanced Steady-State Free Precession (bSSFP) imaging sequence to assess wall motion (WM) and cardiac function; T2-weighted short-tau inversion recovery (T2w-STIR) sequence to assess myocardial edema; early gadolinium enhancement to study microvascular obstruction (no reflow phenomenon); and late gadolinium enhancement (LGE) to assess the amount and extent of myocardial necrosis. All the CMR studies followed the same scheme. First, scout images [T1-turbo field echo (TFE) sequence] were obtained to localize the true axes of the heart and define a field of view involving the whole heart. […]
# [5] = Plasma concentration of ticagrelor by LC-MS/MS; format: in vivo; settings: C57BI6, mouse, intravenous, t = 80 min, ticagrelor 1.2 mg/kg + 30 μg/kg*min
# Protocol: The plasma concentration of ticagrelor was determined by means of a Liquid Chromatographic-Mass Spectrometric (LC-MS/MS) method.
# C57BI6 mice [6] = assay: Mouse tail bleeding model (blood loss and bleeding time)
# Protocol: (§5) C57BI6 mice were administered an intravenous bolus of AZD3366 or vehicle. In separate groups, mice were administered AZD3366 and ticagrelor or ticagrelor only as a bolus and continuous infusion of ticagrelor. The groups, doses and volumes of administration were as described in the following table:
# (§6) Twenty min following dosing, bleeding was initiated by cutting 5 mm of the tip of the tail. The tail was rinsed with water and placed in a haemoglobin sensitive device. Light transmission through the blood and water mixture was recorded and converted to absorbance using the PharmLab software (V6.0, AstraZeneca R&D, Gothenburg, Sweden). Transmittance below 95% was defined as bleeding. Total blood loss, (area under the bleeding curve, t=20 min to t=80 min: cumulative blood loss vs time, absorbance*s, abs*s) and bleeding time (BT) were measured over 60 min from the start of tail cutting.
# [7] = tested on: pig animal model of myocardial infarction; assay: Global and regional cardiac function assessed by CMR in pig model of myocardial infarction; format: in vivo
# Protocol: as §1, §2, §3, §4
# animal models [8] = settings: cited from earlier work
# [9] = tested on: adenosine diphosphatase activity; settings: Moeckel et al. (2014); cited from earlier work
# animal models [10] = settings: cited from earlier work; remark: listed apart in the source
# [11] = in vivo; cited from earlier work
# [12] = tested on: animal models of ischemic stroke; settings: Sun et al., 2011; Tan et al., 2014; cited from earlier work
# C57BI6 mice [13] = settings: mouse, in vivo, iv
# Protocol: as §5, §6
# [14] = ticagrelor-treated animals, p<0.001
# [15] = 3 Days Post-MI, ticagrelor 180 mg p.o. 2 h prior MI, then 90 mg/bid
# [16] = 42 Days Post-MI, ticagrelor 180 mg p.o. 2 h prior MI, then 90 mg/bid
# [17] = BSL (baseline), ticagrelor group
# [18] = preclinical models (Moekel et al. 2015)
molecule,measurement,setting,value
CCCSc1nc(N[C@@H]2C[C@H]2c2ccc(F)c(F)c2)c2nnn([C@@H]3C[C@H](O)[C@@H](O)[C@H]3O)c2n1 [AR-C124910XX],time to peak plasma concentration,[1],~2.5 h
same,mean elimination half-life,[1],9 h
same,potency of active metabolite relative to ticagrelor,platelet aggregation [2]; in vivo,approximately equipotent
"CCCSc1nc(N[C@@H]2C[C@H]2c2ccc(F)c(F)c2)c2nnn([C@@H]3C[C@H](OCCO)[C@@H](O)[C@H]3O)c2n1 [Ticagrelor, (1S,2S,3R,5S)-3-[7-[[(1R,2S)-2-(3,4-difluorophenyl)cyclopropyl]amino]-5-(propylthio)-3H-1,2,3-triazolo[4,5-d]pyrimidin-3-yl]-5-(2-hydroxyethoxy)-1,2-cyclopentanediol]",time to peak plasma concentration,[1],approximately 1.5 hours
same,mean elimination half-life,[1],7 h
same,PA (AU*min),platelet aggregation [3]; ticagrelor 1.2 mg/kg + 30 μg/kg*min,2 ± 2 AU*min
same,Edema % of LV mass,[4]; 3 Days Post-MI,13.1 ± 0.9 %
same,Edema (gr),[4]; 3 Days Post-MI,10.5 ± 0.8 gr
same,LV Mass,[4]; 3 Days Post-MI,81.3 ± 7.4
same,Necrosis % of LV mass,[4]; 3 Days Post-MI,8.2 ± 1.2 %
same,Necrosis (gr),[4]; 3 Days Post-MI,6.6 ± 1.0 gr
same,LV Mass,[4]; 42 Days Post-MI,108.6 ± 6.9
same,Necrosis % of LV mass,[4]; 42 Days Post-MI,4.3 ± 0.8 %
same,Necrosis (gr),[4]; 42 Days Post-MI,4.7 ± 1.0 gr
same,concentration at 80 min,[5],8 ± 0.2 µM
same,BT (s) Median,"C57BI6 mice [6]; bleeding time over 60 min, ticagrelor bolus 1.2 mg/kg + infusion 30 μg/kg*min","3433a, d s"
same,Blood loss (abs*s) Median,"C57BI6 mice [6]; tail transection at t = 20 min, recorded 60 min, ticagrelor bolus 1.2 mg/kg + infusion 30 μg/kg*min","1157a, b, c abs*s"
same,BT increase as compared to vehicle,C57BI6 mice [6]; [14],5.2 fold
same,Blood loss increase as compared to vehicle,C57BI6 mice [6]; [14],7.2 fold
same,LVEF %,[7]; [15],50.3 ± 2.9%
same,Wall motion (mm),[7]; [15],1.88 mm
same,LVEF %,[7]; [16],47.0 ± 4.4%
same,Wall motion (mm),[7]; [16],2.55 mm
same,LVEF %,[7]; [17],53.7 ± 2.8%
same,Wall motion (mm),[7]; [17],2.66 mm
same,time maximum inhibition of platelet aggregation is maintained,platelet aggregation [2]; after a dose,more than 8 hours
same,time for platelet activity to return to baseline following discontinuance,platelet aggregation [2],5 days
CC(=O)Oc1cc2c(s1)CCN(C(C(=O)C1CC1)c1ccccc1F)C2 (stereo not shown) [Prasugrel],elimination half-life,[1]; stated after the active metabolite of prasugrel,about 7.4 hours
Clc1ccccc1CN1CCc2sccc2C1 [ticlopidine],time to peak plasma concentration,[1],around 2 hours
CSCCNc1nc(SCCC(F)(F)F)nc2c1ncn2[C@@H]1O[C@H](COP(=O)(O)OP(=O)(O)C(Cl)(Cl)P(=O)(O)O)[C@@H](O)[C@H]1O [Cangrelor],time to steady state plasma levels and platelet aggregation inhibition,[1]; from onset of infusion,≤ 30 min
same,elimination half-life,[1]; in vivo,3 to 6 min
same,plasma half-life,[1]; in vivo,less than 9 min
same,time for platelet responses to return to baseline,platelet aggregation [2]; after discontinuation,≤ 15 min
same,time to maximal platelet inhibition,platelet aggregation [2]; in vivo,≤ 15 min
COC(=O)[C@H](c1ccccc1Cl)N1CCc2sccc2C1 [Clopidogrel],cardioprotection / protective efficacy,animal models [8]; FIG. 6 of Moeckel et al. (2014),not cardioprotective
same,elimination half-life,[1]; following a single dose of 75 mg,approximately 6 hours
same,time to peak plasma concentrations of the active metabolite,"[1]; following an oral dose, analyte: active metabolite",30 to 60 min
same,time for platelet activity to return to baseline following discontinuance,platelet aggregation [2],about 5 days
same,time at which dose-dependent platelet aggregation inhibition is observed,platelet aggregation [2]; following oral administration of a single dose,around 2 hours
B1,bleeding time,animal models [8]; Moeckel et al. (2014),without an increase in bleeding time
same,infarction size,animal models [8]; Moeckel et al. (2014),decreased infarction size
same,adenosine diphosphatase activity compared with native apyrase,[9],four times higher
same,platelet aggregation (PA) inhibition,platelet aggregation [3]; AZD3366 1 and 3 mg/kg,complete platelet aggregation (PA) inhibition
same,PA (AU*min),platelet aggregation [3]; AZD3366 1.0 mg/kg,2 ± 2 AU*min
same,PA (AU*min),platelet aggregation [3]; AZD3366 3.0 mg/kg,0 ± 0 AU*min
same,time until active after administration,animal models [10]; animal models,≤ 5 min
same,time until return to baseline,animal models [10]; animal models,3 to 4 weeks
same,time activity is maintained,animal models [10]; [18],more than 24 hours
same,time to high levels of activity after administration,animal models [10]; [18],within minutes
same,plasma half-life compared with native apyrase,[11],50 times
same,"reperfusion, re-occlusion and intracerebral bleeding",[12],"enhance reperfusion, reduce re-occlusion and reduce intracerebral bleeding"
same,BT (s) Median,C57BI6 mice [13]; 1 mg/kg,589 s
same,Blood loss (abs*s) Median,C57BI6 mice [13]; 1 mg/kg,157 abs*s
same,BT (s) Median,C57BI6 mice [13]; 3 mg/kg,1438 s
same,Blood loss (abs*s) Median,C57BI6 mice [13]; 3 mg/kg,342e abs*s
